Measured values taken from patent US8658403B2, “Method for producing polyhydroxyalkanoic acid” (priority 2009, dated 2014).

Columns and labels:
Assay type in all cases: cell-based, Pseudomonas fluorescens
BM07-ΔphaZ [1] = test: PHA production, one-step cultivation on 50 mM fructose and 5 mM 11-POU; conditions: 1 mM salicylic acid, 50 mM fructose + 5 mM 11-POU; for Dry cell weight / PHA (aliphatic monomer) / PHA (aromatic monomer) / Polyester content: 30° C.
Protocol: (§1) In the main cultures, 500 μl of the culture grown in NR or LB medium was transferred to 50 ml M1 mineral-salts medium containing 50 mM fructose, 5 mM 11-POU, 0 or 1 mM salicylic acid and 1.0 g/L ammonium sulfate in a 250 mL flask and cultivated at 30° C. Salicylic acid was dissolved by adding sodium hydroxide and the pH of the solution was adjusted to 7.2 before adding to medium. Cell growth was determined by measuring dry cell weight (DCW). The remaining fructose was measured using DNS method and the remaining 11-POU or other carboxylic acids were determined by gas chromatography. The cells were isolated by centrifuging (10,000×g, 10 min), the cell suspension was washed with methanol and dried under vacuum at room temperature for 48 hours. The remaining NH4^+ was measured using Nessler's reagent. In the time-course profiling experiments, a set of culture flasks equal to the planned sampling times (every 4 or 6 h) was prepared and cultivated under the same culture condition. One of the flasks was withdrawn every scheduled time and the medium (50 ml) was centrifuged and analyzed.
(§2) The monomer composition of the PHA in cells was determined by analyzing the methyl esters, recovered from a sulfuric acid/methanol treatment of the cells, using a Hewlett-Packard HP5890 Series II gas chromatograph equipped with a HP-1 capillary column and a flame ionization detector. The gas chromatography (GC) run conditions were as follows: initial temperature of 80° C. for 2 min; heating rate of 8° C./min; final temperature of 250° C. for 6.75 min; carrier (He) flow rate of 3 ml/min; injector temperature of 230° C.; and detector temperature of 280° C. The standardization of each GC peak was made against the PHA of known structure characterized by quantitative NMR analyses

[2] = tested on: P. fluorescens BM07 wild-type; test: as above; conditions: 1 mM salicylic acid, 50 mM fructose + 5 mM 11-POU; for Dry cell weight / PHA (aliphatic monomer) / PHA (aromatic monomer) / Polyester content: 30° C.
Protocol: as §1, §2

BM07 (pBBR-phaZ) = test: PHA production on 50 mM fructose/5 mM 11-POU in PhaZ over-expressed strain; conditions: 1 mM salicylic acid
Protocol: as §1, with “In the time-course profiling experiments, a set of culture flasks equal to the planned sampling times (every 4 or 6 h) was prepared and cultivated under the same culture condition.” left out
The monomer composition of the PHA in cells was determined by analyzing the methyl esters, recovered from a sulfuric acid/methanol treatment of the cells, using a Hewlett-Packard HP5890 Series II gas chromatograph equipped with a HP-1 capillary column and a flame ionization detector. […] The standardization of each GC peak was made against the PHA of known structure characterized by quantitative NMR analyses

BM07 wild-type = test: Aromatic PHA production, one-step cultivation on 50 mM fructose and 10 mM 5-PV or 6PC; conditions: 1 mM salicylic acid, 30° C.
Protocol: as §1, with “In the main cultures, 500 μl of the culture grown in NR or LB medium was transferred to 50 ml M1 mineral-salts medium containing 50 mM fructose, 5 mM 11-POU, 0 or 1 mM salicylic acid and 1.0 g/L ammonium sulfate in a 250 mL flask and cultivated at 30° C.” left out
as §2

BM07-ΔphaZ [3] = test: as above; conditions: 1 mM salicylic acid, 30° C., culture time 72 h
Protocol: as §1, with “In the main cultures, 500 μl of the culture grown in NR or LB medium was transferred to 50 ml M1 mineral-salts medium containing 50 mM fructose, 5 mM 11-POU, 0 or 1 mM salicylic acid and 1.0 g/L ammonium sulfate in a 250 mL flask and cultivated at 30° C.” left out
as §2

[4] = 50 mM fructose + 10 mM 5PV, culture time 72 h
[5] = 50 mM fructose + 10 mM 6PC, culture time 60 h

## O=C(O)c1ccccc1O [Salicylic acid, salicylic acid]
BM07-ΔphaZ [1]
  Content of aliphatic MCL-monomer-units, share of the total PHA: ~10%
  Effect on accumulation of aromatic PHA from 11-POU: significantly retarded the accumulation of aromatic PHA from 11-POU
  Effect on cell growth: did not significantly delay the cell growth
  Time of maximum PHA accumulation: around 70 hours
  Time of maximum cell growth: 50 to 60 h
BM07-ΔphaZ [1]; culture time 72 h
  Dry cell weight: 1.68 ± 0.11 g/L
  PHA (aliphatic monomer): 4.8 ± 0.3 wt. %
  PHA (aromatic monomer): 44.1 ± 1.6 wt. %
  Polyester content: 48.9 ± 1.9 wt. %
BM07-ΔphaZ [1]; culture time 96 h
  Dry cell weight: 1.72 ± 0.09 g/L
  PHA (aliphatic monomer): 4.3 ± 0.4 wt. %
  PHA (aromatic monomer): 48.7 ± 1.4 wt. %
  Polyester content: 53.0 ± 1.8 wt. %
[2]
  Incorporation of aliphatic monomer-units, share of the total PHA content: ~10%
[2]; culture time 48 h
  Dry cell weight: 1.36 ± 0.10 g/L
  PHA (aliphatic monomer): 3.1 ± 0.2 wt. %
  PHA (aromatic monomer): 20.8 ± 0.9 wt. %
  Polyester content: 23.9 ± 1.1 wt. %
[2]; culture time 72 h
  Dry cell weight: 1.78 ± 0.06 g/L
  PHA (aliphatic monomer): 2.5 ± 0.5 wt. %
  PHA (aromatic monomer): 26.8 ± 1.6 wt. %
  Polyester content: 29.3 ± 2.1 wt. %
BM07 (pBBR-phaZ)
  Incorporation of aliphatic monomer-units, share of the total PHA content at the maximum accumulation: < 4%
BM07 wild-type; [4]
  Aromatic PHA content: 34.2 ± 1.5 wt. %
  Dry cell weight: 1.98 ± 0.08 g/L
BM07 wild-type; [5]
  Aromatic PHA content: 32.8 ± 1.7 wt. %
  Dry cell weight: 1.78 ± 0.13 g/L
BM07-ΔphaZ [3]; 50 mM fructose + 10 mM 5PV
  Aromatic PHA content: 49.9 ± 1.3 wt. %
  Dry cell weight: 2.10 ± 0.06 g/L
BM07-ΔphaZ [3]; 50 mM fructose + 10 mM 6PC
  Aromatic PHA content: 35.1 ± 1.2 wt. %
  Dry cell weight: 1.72 ± 0.08 g/L
